# Measurements from ChEMBL document CHEMBL3885881, “DrugMatrix”.
# Species on record: Rattus norvegicus
# Test: DrugMatrix - Regimen: Daily Repeat
# Format: toxicity, organism-based, Sprague-Dawley
# Parameters: regimen Daily Repeat, gender Male, age 6-8 weeks
# Settings: in vivo, po, route oral GAVAGE, vehicle 100 % WATER; for BASOPHIL / EOSINOPHIL / ERYTHROCYTE COUNT / HEMATOCRIT / HEMOGLOBIN / LEUKOCYTE COUNT / LYMPHOCYTE / MEAN CORPUSCULAR HEMOGLOBIN / MEAN CORPUSCULAR HEMOGLOBIN CONCENTRATION / MEAN CORPUSCULAR VOLUME / MONOCYTE / NEUTROPHIL / PLATELET COUNT: tissue Blood; for ALANINE AMINOTRANSFERASE / ALBUMIN / ALKALINE PHOSPHATASE / ASPARTATE AMINOTRANSFERASE / BLOOD UREA NITROGEN / CHLORIDE / CHOLESTEROL / CREATINE PHOSPHOKINASE / CREATININE / GLUCOSE / PHOSPHORUS / POTASSIUM / SODIUM / TOTAL BILIRUBIN / TOTAL PROTEIN: tissue Plasma
# [1] = 0 mg/kg, 72 h, dose level Control, time 3 day
# [2] = 0 mg/kg, 120 h, dose level Control, time 5 day
# [3] = 10 mg/kg, 72 h, dose level Low, time 3 day
# [4] = 10 mg/kg, 120 h, dose level Low, time 5 day
# [5] = 1500 mg/kg, 72 h, dose level High, time 3 day
# [6] = 1500 mg/kg, 120 h, dose level High, time 5 day
compound,measurement,setting,value
O=C(O)c1cc(=O)c2c(OCC(O)COc3cccc4oc(C(=O)O)cc(=O)c34)cccc2o1 [CROMOLYN],BASOPHIL,[1],0%
same,EOSINOPHIL,[1],0.33%
same,ERYTHROCYTE COUNT,[1],5.88 x10E6/uL
same,HEMATOCRIT,[1],36.47%
same,HEMOGLOBIN,[1],14.2 G/DL
same,LEUKOCYTE COUNT,[1],9.28 x10E3/uL
same,LYMPHOCYTE,[1],82.33%
same,MEAN CORPUSCULAR HEMOGLOBIN,[1],24.2 pg
same,MEAN CORPUSCULAR HEMOGLOBIN CONCENTRATION,[1],38.97 G/DL
same,MEAN CORPUSCULAR VOLUME,[1],62.12 fL
same,MONOCYTE,[1],2.33%
same,NEUTROPHIL,[1],15%
same,PLATELET COUNT,[1],1114 x10E3/uL
same,ALANINE AMINOTRANSFERASE,[1],41.17 u/L
same,ALBUMIN,[1],3.95 G/DL
same,ALKALINE PHOSPHATASE,[1],382.5 u/L
same,ASPARTATE AMINOTRANSFERASE,[1],67.33 u/L
same,BLOOD UREA NITROGEN,[1],15.5 mg/dL
same,CHLORIDE,[1],106.33 MEQ/L
same,CHOLESTEROL,[1],77.67 mg/dL
same,CREATINE PHOSPHOKINASE,[1],123.33 u/L
same,CREATININE,[1],0.62 mg/dL
same,GLUCOSE,[1],185.67 mg/dL
same,PHOSPHORUS,[1],10.2 mg/dL
same,POTASSIUM,[1],6.72 MEQ/L
same,SODIUM,[1],149.67 MEQ/L
same,TOTAL BILIRUBIN,[1],0.97 mg/dL
same,TOTAL PROTEIN,[1],6.58 G/DL
same,BASOPHIL,[2],0%
same,EOSINOPHIL,[2],0%
same,ERYTHROCYTE COUNT,[2],5.99 x10E6/uL
same,HEMATOCRIT,[2],36.88%
same,HEMOGLOBIN,[2],14.77 G/DL
same,LEUKOCYTE COUNT,[2],11.35 x10E3/uL
same,LYMPHOCYTE,[2],85.5%
same,MEAN CORPUSCULAR HEMOGLOBIN,[2],24.7 pg
same,MEAN CORPUSCULAR HEMOGLOBIN CONCENTRATION,[2],40.07 G/DL
same,MEAN CORPUSCULAR VOLUME,[2],61.58 fL
same,MONOCYTE,[2],1.83%
same,NEUTROPHIL,[2],12.67%
same,PLATELET COUNT,[2],979.67 x10E3/uL
same,ALANINE AMINOTRANSFERASE,[2],36.5 u/L
same,ALBUMIN,[2],3.63 G/DL
same,ALKALINE PHOSPHATASE,[2],303.5 u/L
same,ASPARTATE AMINOTRANSFERASE,[2],61 u/L
same,BLOOD UREA NITROGEN,[2],16.5 mg/dL
same,CHLORIDE,[2],106.17 MEQ/L
same,CHOLESTEROL,[2],60.5 mg/dL
same,CREATINE PHOSPHOKINASE,[2],154.83 u/L
same,CREATININE,[2],0.6 mg/dL
same,GLUCOSE,[2],201 mg/dL
same,PHOSPHORUS,[2],10.1 mg/dL
same,POTASSIUM,[2],6.85 MEQ/L
same,SODIUM,[2],148.17 MEQ/L
same,TOTAL BILIRUBIN,[2],0.58 mg/dL
same,TOTAL PROTEIN,[2],5.9 G/DL
same,BASOPHIL,[3],0%
same,EOSINOPHIL,[3],0%
same,ERYTHROCYTE COUNT,[3],5.62 x10E6/uL
same,HEMATOCRIT,[3],34.93%
same,HEMOGLOBIN,[3],13.6 G/DL
same,LEUKOCYTE COUNT,[3],10.7 x10E3/uL
same,LYMPHOCYTE,[3],79%
same,MEAN CORPUSCULAR HEMOGLOBIN,[3],24.23 pg
same,MEAN CORPUSCULAR HEMOGLOBIN CONCENTRATION,[3],38.93 G/DL
same,MEAN CORPUSCULAR VOLUME,[3],62.2 fL
same,MONOCYTE,[3],2.33%
same,NEUTROPHIL,[3],18.67%
same,PLATELET COUNT,[3],1007 x10E3/uL
same,ALANINE AMINOTRANSFERASE,[3],38.67 u/L
same,ALBUMIN,[3],3.87 G/DL
same,ALKALINE PHOSPHATASE,[3],381.33 u/L
same,ASPARTATE AMINOTRANSFERASE,[3],60.67 u/L
same,BLOOD UREA NITROGEN,[3],13 mg/dL
same,CHLORIDE,[3],107.33 MEQ/L
same,CHOLESTEROL,[3],71.67 mg/dL
same,CREATINE PHOSPHOKINASE,[3],119.67 u/L
same,CREATININE,[3],0.6 mg/dL
same,GLUCOSE,[3],182 mg/dL
same,PHOSPHORUS,[3],10.4 mg/dL
same,POTASSIUM,[3],6.6 MEQ/L
same,SODIUM,[3],150.33 MEQ/L
same,TOTAL BILIRUBIN,[3],0.8 mg/dL
same,TOTAL PROTEIN,[3],6.33 G/DL
same,BASOPHIL,[4],0%
same,EOSINOPHIL,[4],0.33%
same,ERYTHROCYTE COUNT,[4],5.82 x10E6/uL
same,HEMATOCRIT,[4],35.37%
same,HEMOGLOBIN,[4],14.43 G/DL
same,LEUKOCYTE COUNT,[4],10.43 x10E3/uL
same,LYMPHOCYTE,[4],85%
same,MEAN CORPUSCULAR HEMOGLOBIN,[4],24.83 pg
same,MEAN CORPUSCULAR HEMOGLOBIN CONCENTRATION,[4],40.83 G/DL
same,MEAN CORPUSCULAR VOLUME,[4],60.73 fL
same,MONOCYTE,[4],2.33%
same,NEUTROPHIL,[4],12.33%
same,PLATELET COUNT,[4],932 x10E3/uL
same,ALANINE AMINOTRANSFERASE,[4],38 u/L
same,ALBUMIN,[4],3.73 G/DL
same,ALKALINE PHOSPHATASE,[4],274 u/L
same,ASPARTATE AMINOTRANSFERASE,[4],62.33 u/L
same,BLOOD UREA NITROGEN,[4],13.33 mg/dL
same,CHLORIDE,[4],109 MEQ/L
same,CHOLESTEROL,[4],60.33 mg/dL
same,CREATINE PHOSPHOKINASE,[4],101.67 u/L
same,CREATININE,[4],0.73 mg/dL
same,GLUCOSE,[4],167.33 mg/dL
same,PHOSPHORUS,[4],9.73 mg/dL
same,POTASSIUM,[4],6.7 MEQ/L
same,SODIUM,[4],151.33 MEQ/L
same,TOTAL BILIRUBIN,[4],0.67 mg/dL
same,TOTAL PROTEIN,[4],5.87 G/DL
same,BASOPHIL,[5],0%
same,EOSINOPHIL,[5],0.33%
same,ERYTHROCYTE COUNT,[5],5.31 x10E6/uL
same,HEMATOCRIT,[5],33.07%
same,HEMOGLOBIN,[5],13.3 G/DL
same,LEUKOCYTE COUNT,[5],10.3 x10E3/uL
same,LYMPHOCYTE,[5],79.67%
same,MEAN CORPUSCULAR HEMOGLOBIN,[5],25.1 pg
same,MEAN CORPUSCULAR HEMOGLOBIN CONCENTRATION,[5],40.3 G/DL
same,MEAN CORPUSCULAR VOLUME,[5],62.23 fL
same,MONOCYTE,[5],1%
same,NEUTROPHIL,[5],18.67%
same,PLATELET COUNT,[5],969.67 x10E3/uL
same,ALANINE AMINOTRANSFERASE,[5],36 u/L
same,ALBUMIN,[5],3.9 G/DL
same,ALKALINE PHOSPHATASE,[5],383.5 u/L
same,ASPARTATE AMINOTRANSFERASE,[5],60 u/L
same,BLOOD UREA NITROGEN,[5],13 mg/dL
same,CHLORIDE,[5],106 MEQ/L
same,CHOLESTEROL,[5],72 mg/dL
same,CREATINE PHOSPHOKINASE,[5],122 u/L
same,CREATININE,[5],0.5 mg/dL
same,GLUCOSE,[5],179 mg/dL
same,PHOSPHORUS,[5],9.8 mg/dL
same,POTASSIUM,[5],6.7 MEQ/L
same,SODIUM,[5],150 MEQ/L
same,TOTAL BILIRUBIN,[5],0.5 mg/dL
same,TOTAL PROTEIN,[5],6.25 G/DL
same,BASOPHIL,[6],0%
same,EOSINOPHIL,[6],0%
same,ERYTHROCYTE COUNT,[6],6.38 x10E6/uL
same,HEMATOCRIT,[6],37.77%
same,HEMOGLOBIN,[6],14.93 G/DL
same,LEUKOCYTE COUNT,[6],13.03 x10E3/uL
same,LYMPHOCYTE,[6],83.33%
same,MEAN CORPUSCULAR HEMOGLOBIN,[6],23.43 pg
same,MEAN CORPUSCULAR HEMOGLOBIN CONCENTRATION,[6],39.57 G/DL
same,MEAN CORPUSCULAR VOLUME,[6],59.27 fL
same,MONOCYTE,[6],0.67%
same,NEUTROPHIL,[6],16%
same,PLATELET COUNT,[6],1070.67 x10E3/uL
same,ALANINE AMINOTRANSFERASE,[6],36.33 u/L
same,ALBUMIN,[6],3.77 G/DL
same,ALKALINE PHOSPHATASE,[6],352 u/L
same,ASPARTATE AMINOTRANSFERASE,[6],63 u/L
same,BLOOD UREA NITROGEN,[6],15.33 mg/dL
same,CHLORIDE,[6],106 MEQ/L
same,CHOLESTEROL,[6],50.67 mg/dL
same,CREATINE PHOSPHOKINASE,[6],125.33 u/L
same,CREATININE,[6],0.63 mg/dL
same,GLUCOSE,[6],177.67 mg/dL
same,PHOSPHORUS,[6],10.5 mg/dL
same,POTASSIUM,[6],7.1 MEQ/L
same,SODIUM,[6],150 MEQ/L
same,TOTAL BILIRUBIN,[6],0.57 mg/dL
same,TOTAL PROTEIN,[6],6.13 G/DL
